Measurements from patent publication US20240307319A1, “IONIZABLE LIPID MOLECULE, PREPARATION METHOD THEREFOR, AND APPLICATION THEREOF IN PREPARATION OF LIPID NANOPARTICLE” (IMMORNA (HANGZHOU) BIOTECHNOLOGY CO., LTD., priority 2021, published 2024).

Tested on: BHK cells
Assay: Protein in vitro expression ability of eGFP mRNA lipid nanoparticle compositions in BHK cells by flow cytometer
Assay type: cell-based
Details: 24-hour co-incubation, MC3 LNP without mRNA set as 0; for Fluorescent protein expression rate (0.1 μg): 0.1 μg LNP composition with eGFP mRNA; for Fluorescent protein expression rate (0.5 μg): 0.5 μg LNP composition with eGFP mRNA
Experimental: BHK cells were from ATCC and maintained at 37° C. under 5% CO2 in Dulbecco's modified Eagle medium (HyClone) supplemented with 10% fetal bovine serum (HyClone). 0.1 μg or 0.5 μg of the lipid nanoparticle composition prepared by the ionizable lipid compound of the invention or the commercial MC3 nanoparticle composition was co-incubated with the BHK cells to deliver the mRNA nucleic acid encoding the enhanced green fluorescent protein contained therein into the BHK cells to express the corresponding protein. After 24-hour co-incubation, the cells were digested with trypsin and collected, and signal intensity of intracellular green fluorescent protein was collected using a flow cytometer. Analysis of relative protein expression rates was performed using a cell group to which the commercial MC3 nanoparticle composition not containing mRNA encoding enhanced green fluorescent protein was added as a control.
The fluorescence intensity obtained after the commercial MC3 nanoparticle composition not containing mRNA encoding enhanced green fluorescent protein was co-incubated with cells is set as the base point, with the green fluorescent protein expression rate being 0.

Structure (SMILES)	Fluorescent protein expression rate (0.1 μg) [%]	Fluorescent protein expression rate (0.5 μg) [%]
CCCCCCCCCOC(=O)CCCCCCCOc1ccc(OCCCCCCCC(=O)OCCCCCCCCC)c(COC(=O)CCCN(C)C)c1 [Compound I]	82.60	93.51
CCCCC/C=C\C/C=C\CCCCCCCCC(CCCCCCCC/C=C\C/C=C\CCCCC)OC(=O)CCCN(C)C [MC3, Dlin-MC3-DMA]	95.87	99.99
